Test results taken from publication PMC10302868 (Molecules, 2023).
Values after ≈ are worked out from the molar mass of the structure shown. Like-named read-outs stand apart in the source and are kept apart here.

What was measured:
[1] = in vitro; assay type: in vitro ADME; conditions: human, plasma, pH 7.4
Protocol: Human plasma (BIOMEX GmbH) was mixed from more than 6 individuals and rat plasma was mixed from more than 10 rats. […] The samples were matched with opposite blank buffer to obtain a final volume of 100 µL with a volume ratio of the matrix: Dialysis Buffer (100 mM sodium phosphate and 150 mM NaCl, pH 7.4) (1:1) in each well. […] The plate was sealed and shaken at 800 rpm for 10 min. Then these T0 samples were stored at 4 °C pending further processing along with other post-dialysis samples. […] The plate was rotated at 100 rpm in a humidified incubator with 5% CO2 at 37 °C for 4 h. At the end of the dialysis, all samples were further processed by protein precipitation for LC-MS/MS analysis. The %bound was calculated using the following equations:%Unbound = 100 × F/T %Bound = 100 − %Unbound
F = Free compound concentration as determined by the calculated concentration on the buffer side of the membrane.
T = Total compound concentration as determined by the calculated concentration on the matrix side of the membrane.

[2] = in vitro; assay type: in vitro ADME; conditions: microsomes
Protocol: Microsomes from humans and rats were purchased from Corning (Shanghai, China) and Xenotech (Kansas City, KS, USA), respectively. The working solution of liver microsomes was prepared in 100 mM phosphate buffer at 0.56 mg/mL. The quench solution was cold (4 °C) acetonitrile (ACN) containing 200 ng/mL Verapamil and 200 ng/mL Imipramine as internal standards (IS). An amount of 445 µL of the microsomal working solution was transferred into the pre-warmed plates T120 (incubate time: 120 min) and NCF 120 (no co-factor NADPH regenerating system), then the plates were incubated at 37 °C for 10 min with constant shaking. An amount of 54 µL of the liver microsomes was transferred into a blank plate, and 6 µL NADPH and 180 µL quenching solution were added to the blank plate. The microsomal working solution (0.56 mg/mL) and the compound working solution (100 µM) were mixed 3 times thoroughly and 54 µL was immediately removed for the 0 min point. Then 44 µL NADPH cofactor was added to the incubation plate, and shaken at 37 °C for 120 min. At 15, 30, 60, 90, and 120 min, a 60 µL sample was transferred to the quenching solution and centrifuged at 4000 rpm for 20 min at 4 °C [6]. Then, 80 µL supernatant was transferred to the HPLC water and shaken for 10 min before LC-MS/MS analysis.

[3] = in vitro; assay type: in vitro ADME; conditions: hepatocytes
Protocol: Cryopreserved hepatocytes from male SD rats and humans were both purchased from Bioreclamation-IVT. The human cryopreserved hepatocytes were pooled from 10 human donors with a viability of 77.9% tested by trypan blue. The rats’ cryopreserved hepatocytes were pooled from 12 male SD (Sprague Dawley) rats, and the cell viability was 80.9%. The hepatocytes were diluted to 0.5 × 10^6/mL cell suspension with pre-warmed incubation medium ([…]). […] At 15, 30, 60, and 90 min, the samples were mixed and then 25 μL of each sample was transferred at each time point to a well containing 125 μL of ice-cold stop solution (acetonitrile containing 200 ng/mL tolbutamide and labetalol as internal standards) followed by mixing. The samples were vortexed on a plate shaker at 500 rpm for 10 min, and centrifuged at 3220× g for 20 min at 4 °C. The supernatants were transferred to ultra-pure water and analyzed by LC-MS/MS. […] CLint (hep) = k/million cells per mL CLint (liver) = CLint (hep) × liver weight (g/kg body weight) × hepatocellularity

[4] = tested on: S. aureus SAU-0167 (MRSA); assay: MIC determination; assay type: cell-based; conditions: Staphylococcus aureus
[5] = tested on: S. aureus SAU-9922 (MRSA); assay: MIC determination; assay type: cell-based; conditions: Staphylococcus aureus
[6] = tested on: S. pneumoniae SPN-1169; assay: MIC determination; assay type: cell-based; conditions: Streptococcus pneumoniae, SPN1169
[7] = tested on: S. pyogenes SPY-0253; assay: MIC determination; assay type: cell-based; conditions: Streptococcus pyogenes, SPY0253
[8] = tested on: E. faecium EFA-0221 (VRE); assay: MIC determination; assay type: cell-based; conditions: Enterococcus faecium
[9] = tested on: E. faecalis ATCC 29212; assay: MIC determination; assay type: cell-based; conditions: Enterococcus faecalis, ATCC29212
[10] = tested on: A. baumannii ATCC 17978; assay: MIC determination; assay type: cell-based; conditions: Acinetobacter baumannii, ATCC17978
[11] = tested on: A. baumannii ATCC BAA-1605; assay: MIC determination; assay type: cell-based; conditions: Acinetobacter baumannii, ATCCBAA1605
[12] = tested on: K. pneumoniae ATCC BAA-1705; assay: MIC determination; assay type: cell-based; conditions: Klebsiella pneumoniae, ATCCBAA1705
[13] = tested on: P. aeruginosa ATCC 27853; assay: MIC determination; assay type: cell-based; conditions: Pseudomonas aeruginosa, ATCC27853
[14] = tested on: E. coli ATCC 25922; assay: MIC determination; assay type: cell-based; conditions: Escherichia coli, ATCC25922
[15] = tested on: M. tuberculosis H37Rv ATCC27294; assay: MIC determination (Microplate Alamar Blue Assay); assay type: cell-based, Mycobacterium tuberculosis; conditions: M. tuberculosis H37Rv ATCC27294, 7 days
[16] = tested on: M. bovis BCG (Pasteur 1173P2); assay: microbe, parasite or virus in culture; assay type: cell-based; conditions: Mycobacterium tuberculosis variant bovis BCG, 168 h
[17] = tested on: M. abscessus-C16; assay: MIC determination (Microplate Alamar Blue Assay); assay type: cell-based, Mycobacterium abscessus; conditions: Mycobacteroides abscessus; M. abscessus-C16, 72 h
[18] = tested on: M. abscessus-C28; assay: MIC determination (Microplate Alamar Blue Assay); assay type: cell-based, Mycobacterium abscessus; conditions: Mycobacteroides abscessus, 72 h
[19] = human
[20] = tested on: Wolbachia-infected LDW1 cells (wMel); conditions: cited from earlier work
[21] = tested on: Wolbachia-infected C6/36 cells (wAlb); conditions: cited from earlier work
[22] = physchem
[23] = in vitro; conditions: African green monkey
[24] = tested on: MDR1-MDCK; conditions: cited from earlier work

`C=C[C@]1(C)C[C@@H](OC(=O)COc2ccc3c(c2F)B(O)OC3)[C@]2(C)[C@H](C)CC[C@]3(CCC(=O)[C@H]32)[C@@H](C)[C@@H]1O` [AN11251] showed a fraction unbound at 4 h, 2 µM [1] of 0.024, a CLint scaled ([2]; human) of 300 mL/min/kg and a CLint scaled ([2]; rat) of 333 mL/min/kg. For the same molecule, the CLint scaled at 20 µg/mL ([3]; human) was 180 mL/min/kg, the hepatocyte CLint at 20 µg/mL ([3]; human) was 64.8 µL/min/1e6 cells and the CLint scaled at 20 µg/mL ([3]; male, Sprague-Dawley, rat) was 876 mL/min/kg. It also gave an MIC [4] of 0.063 µg/mL (≈ 0.119 µM), an MIC [5] of 0.063 µg/mL (≈ 0.119 µM) and an MIC [6] of 0.5 µg/mL (≈ 0.946 µM). For the same molecule, the MIC [7] was 0.063 µg/mL (≈ 0.119 µM), the MIC [8] was 0.125 µg/mL (≈ 0.237 µM) and the MIC [9] was 5 µg/mL (≈ 9.46 µM). For the same molecule, the MIC [10] was 20 µg/mL (≈ 37.8 µM), the MIC [11] was 32 µg/mL (≈ 60.6 µM) and the MIC [12] was > 32 µg/mL. The MIC [13] was > 32 µg/mL, the MIC [14] was > 32 µg/mL and the MIC [15] was 0.952 µg/mL (≈ 1.8 µM). For the same molecule, the MIC ([15]; Mycobacterium tuberculosis, 168 h, read-out: MIC) was 0.925 µg/mL (≈ 1.75 µM), the MIC [16] was 2.5 µg/mL (≈ 4.73 µM) and the MIC [17] was > 20 µg/mL. The MIC [18] was > 20 µg/mL, the half-life [19] was 4.2 h and the EC50 [20] was 0.000792 µg/mL (≈ 0.0015 µM). The EC50 [21] was 0.00792 µg/mL (≈ 0.015 µM), the logP [22] was 4.5 and the CC50 [23] was 27 µg/mL (≈ 51.1 µM). The “apparent permeability (Papp)” value [24] was 14.1 ×10⁻⁶ cm/s.
